# Results: ChEMBL document CHEMBL1201862, “PubChem BioAssay data set” (2004)
#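 Exposure lasted 48 hours, with cells grown in 96-well plates and compounds tested at five concentrations. GI50: concentration for 50% inhibition of growth.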 Active and inactive are the calls of the source. Rule as the data show it: active = GI50 up to about 1.1 µM and inactive = higher.
# Tests used:
# Experiment in all cases: growth of human tumour cells (NCI), 48 h
# KM-20L2 = system: KM-20L2
# HOP-18 = system: HOP-18
# DMS-114 = system: DMS-114
# LXFL 529 = system: LXFL 529
# M19-MEL = system: M19-MEL
# SNB-78 = system: SNB-78
# DLD-1 = system: DLD-1
# DMS-273 = system: DMS-273
# RXF 631 = system: RXF 631
SMILES,GI50 (KM-20L2),GI50 (HOP-18),GI50 (DMS-114),GI50 (LXFL 529),GI50 (M19-MEL),GI50 (SNB-78),GI50 (DLD-1),GI50 (DMS-273),GI50 (RXF 631)
CC(C)N(O)C(=N)c1ccccc1,> 100 µM (inactive),0.0473 µM (active),> 100 µM (inactive),> 100 µM (inactive),> 100 µM (inactive),> 100 µM (inactive),> 100 µM (inactive),,
O=c1c2cc3ccccc3n2c(=O)c2cc3ccccc3n12,> 100 µM (inactive),> 100 µM (inactive),> 100 µM (inactive),> 100 µM (inactive),> 100 µM (inactive),> 100 µM (inactive),> 100 µM (inactive),> 100 µM (inactive),
CCC(=O)OC1CCn2c1nc1c2C(=O)C(C)=C(N2CC2)C1=O (centres undefined),0.233 µM (active),0.0439 µM (active),0.12 µM (active),0.0933 µM (active),0.146 µM (active),0.462 µM (active),0.105 µM (active),0.045 µM (active),
CCOC(=O)/N=c1\ss/c(=N\C(=S)N(C)C)n1-c1ccccc1,> 10 µM (inactive),> 10 µM (inactive),0.453 µM (active),4.44 µM (inactive),0.834 µM (active),36.3 µM (inactive),> 10 µM (inactive),2.15 µM (inactive),
O=C1/C(=C/c2ccccc2Cl)COc2ccccc21,18.5 µM (inactive),11.8 µM (inactive),18 µM (inactive),17.5 µM (inactive),18.6 µM (inactive),19.3 µM (inactive),15.3 µM (inactive),15 µM (inactive),19.2 µM (inactive)
O=[N+]([O-])c1cccc(C2=NN(c3ccccc3)C[N+](c3ccc(Br)cc3)=N2)c1,> 100 µM (inactive),43.7 µM (inactive),,46.8 µM (inactive),70.8 µM (inactive),34.4 µM (inactive),96.8 µM (inactive),77.4 µM (inactive),
COc1ccc(/C=C2\SC(c3ccc(OC)cc3)N(NC(=O)Cc3ccccc3)C2=O)cc1 (centres undefined),,> 100 µM (inactive),> 100 µM (inactive),> 100 µM (inactive),> 100 µM (inactive),,> 100 µM (inactive),> 100 µM (inactive),
Cc1nc2ccccc2c(=O)n1-c1ccccc1I,,,82.4 µM (inactive),90.4 µM (inactive),> 100 µM (inactive),> 100 µM (inactive),> 100 µM (inactive),,
CC1(C)O[C@H]2OC3CCC(=O)CC3(O)[C@H]2O1 (some centres undefined),,,> 100 µM (inactive),,> 100 µM (inactive),> 100 µM (inactive),> 100 µM (inactive),,
CC1=C(/C=C/C(C)=C/C=C/C(C)=C/C=C/C=C(C)/C=C/C=C(C)/C=C/C2=C(C)C(=O)C(O)CC2(C)C)C(C)(C)CC(O)C1=O (centres undefined),> 100 µM (inactive),> 100 µM (inactive),> 100 µM (inactive),,> 100 µM (inactive),> 100 µM (inactive),> 100 µM (inactive),> 100 µM (inactive),> 100 µM (inactive)
CCO[C@@H]1C2C=CC(C2)[C@H]1[N+](=O)[O-] (some centres undefined),> 100 µM (inactive),> 100 µM (inactive),> 100 µM (inactive),> 100 µM (inactive),> 100 µM (inactive),> 100 µM (inactive),> 100 µM (inactive),> 100 µM (inactive),
O=c1c2cc(Br)ccc2[nH]c(=S)n1-c1ccc(Br)cc1,> 100 µM (inactive),> 100 µM (inactive),> 100 µM (inactive),> 100 µM (inactive),> 100 µM (inactive),> 100 µM (inactive),> 100 µM (inactive),,
C[C@@]12CCC(=O)c3coc(c31)C(=O)c1cc3c(cc12)C(=O)C=CC3=O [HELENAQUINONE],> 86.5 µM (inactive),17.3 µM (inactive),14 µM (inactive),17.4 µM (inactive),6.05 µM (inactive),22 µM (inactive),15.4 µM (inactive),15.5 µM (inactive),
O=C(CCc1nnc(S)[nH]1)NC12CC3CC(CC(C3)C1)C2,> 100 µM (inactive),> 100 µM (inactive),> 100 µM (inactive),> 100 µM (inactive),> 100 µM (inactive),> 100 µM (inactive),> 100 µM (inactive),> 100 µM (inactive),> 100 µM (inactive)
Cc1nn2c(nc1=O)sc1ccc3ccccc3c12,> 100 µM (inactive),> 100 µM (inactive),> 100 µM (inactive),> 100 µM (inactive),> 100 µM (inactive),> 100 µM (inactive),> 100 µM (inactive),> 100 µM (inactive),
CCOC(=O)/C(C#N)=C1\N[C@H](C(=O)OCC)CO1,> 100 µM (inactive),> 100 µM (inactive),,> 100 µM (inactive),> 100 µM (inactive),> 100 µM (inactive),> 100 µM (inactive),,> 100 µM (inactive)
c1cc(-c2cn[nH]c2)cc(-c2cn[nH]c2)c1,33 µM (inactive),,45.9 µM (inactive),,71.3 µM (inactive),80.7 µM (inactive),33.7 µM (inactive),30.6 µM (inactive),38 µM (inactive)
